Test results as given in PubChem BioAssay (NCI).
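Grown in 96-well plates, cells were treated for 48 hours with each compound at five concentrations. Insufficient inhibition: endpoint recorded as highest concentration tested. GI50 marks 50% less growth. TGI is the concentration that stops growth completely.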

Assays:
Assay in all cases: NCI-60 cell line screen, 48 h
A549 NSCLC = tested on: A549 NSCLC
IGROV1 ovarian = tested on: IGROV1 ovarian
MDA-MB-231 breast = tested on: MDA-MB-231 breast
UACC-62 melanoma = tested on: UACC-62 melanoma
KM12 colon = tested on: KM12 colon
NCI-H522 lung = tested on: NCI-H522 lung
CCRF-CEM leukemia = tested on: CCRF-CEM leukemia
SF-268 CNS = tested on: SF-268 CNS
HL-60(TB) leukemia = tested on: HL-60(TB) leukemia
PC-3 prostate = tested on: PC-3 prostate
UACC-257 melanoma = tested on: UACC-257 melanoma
SK-OV-3 ovarian = tested on: SK-OV-3 ovarian
NCI-H226 lung = tested on: NCI-H226 lung
HCC-2998 colon = tested on: HCC-2998 colon
NCI/ADR-RES ovarian = tested on: NCI/ADR-RES ovarian
SN12C renal = tested on: SN12C renal
A498 renal = tested on: A498 renal
COLO 205 colon = tested on: COLO 205 colon
NCI-H23 lung = tested on: NCI-H23 lung
SF-539 CNS = tested on: SF-539 CNS
CAKI-1 renal = tested on: CAKI-1 renal
HCT-15 colon = tested on: HCT-15 colon
UO-31 renal = tested on: UO-31 renal
MDA-MB-435 = tested on: MDA-MB-435
SK-MEL-28 melanoma = tested on: SK-MEL-28 melanoma
NCI-H460 lung = tested on: NCI-H460 lung
ACHN renal = tested on: ACHN renal
786-0 renal = tested on: 786-0 renal
LOX IMVI melanoma = tested on: LOX IMVI melanoma
K-562 leukemia = tested on: K-562 leukemia
OVCAR-8 ovarian = tested on: OVCAR-8 ovarian
HS 578T breast = tested on: HS 578T breast
TK-10 renal = tested on: TK-10 renal
M14 melanoma = tested on: M14 melanoma
SW-620 colon = tested on: SW-620 colon
BT-549 breast = tested on: BT-549 breast
SNB-19 CNS = tested on: SNB-19 CNS
MOLT-4 leukemia = tested on: MOLT-4 leukemia
OVCAR-4 ovarian = tested on: OVCAR-4 ovarian
T-47D breast = tested on: T-47D breast
U251 CNS = tested on: U251 CNS
SNB-75 CNS = tested on: SNB-75 CNS
SF-295 CNS = tested on: SF-295 CNS
HOP-92 NSCLC = tested on: HOP-92 NSCLC
SK-MEL-2 melanoma = tested on: SK-MEL-2 melanoma
MALME-3M melanoma = tested on: MALME-3M melanoma
HCT-116 colon = tested on: HCT-116 colon
HOP-62 NSCLC = tested on: HOP-62 NSCLC
DU-145 prostate = tested on: DU-145 prostate
MCF7 breast = tested on: MCF7 breast
EKVX NSCLC = tested on: EKVX NSCLC
RXF 393 renal = tested on: RXF 393 renal
OVCAR-5 ovarian = tested on: OVCAR-5 ovarian
OVCAR-3 ovarian = tested on: OVCAR-3 ovarian
HT29 colon = tested on: HT29 colon
RPMI-8226 leukemia = tested on: RPMI-8226 leukemia
SK-MEL-5 melanoma = tested on: SK-MEL-5 melanoma

SMILES: COc1ccc(-c2nc(S(=O)(=O)c3ccccc3)c(S(=O)CC(=O)N3CCC(C)CC3)o2)cc1 (stereo unspecified)
- GI50 (A549 NSCLC): 7.59 µM
- TGI (A549 NSCLC): 21.1 µM
- GI50 (IGROV1 ovarian): 2.17 µM
- TGI (IGROV1 ovarian): 6.27 µM
- GI50 (MDA-MB-231 breast): 1.91 µM
- TGI (MDA-MB-231 breast): 4.08 µM
- GI50 (UACC-62 melanoma): 1.67 µM
- TGI (UACC-62 melanoma): 3.6 µM
- GI50 (KM12 colon): 4.72 µM
- TGI (KM12 colon): 16.7 µM
- GI50 (NCI-H522 lung): 1.44 µM
- TGI (NCI-H522 lung): 3.39 µM
- GI50 (CCRF-CEM leukemia): 2.82 µM
- TGI (CCRF-CEM leukemia): 8.63 µM
- GI50 (SF-268 CNS): 3.78 µM
- TGI (SF-268 CNS): 14.9 µM
- GI50 (HL-60(TB) leukemia): 1.61 µM
- TGI (HL-60(TB) leukemia): 8.35 µM
- GI50 (PC-3 prostate): 3.55 µM
- TGI (PC-3 prostate): 15.7 µM
- GI50 (UACC-257 melanoma): 2.1 µM
- TGI (UACC-257 melanoma): 5.05 µM
- GI50 (SK-OV-3 ovarian): 12.9 µM
- TGI (SK-OV-3 ovarian): 26.5 µM
- GI50 (NCI-H226 lung): 2.37 µM
- TGI (NCI-H226 lung): 6.25 µM
- GI50 (HCC-2998 colon): 14 µM
- TGI (HCC-2998 colon): 28.8 µM
- GI50 (NCI/ADR-RES ovarian): 3.1 µM
- TGI (NCI/ADR-RES ovarian): 12 µM
- GI50 (SN12C renal): 1.9 µM
- TGI (SN12C renal): 3.6 µM
- GI50 (A498 renal): 2.46 µM
- TGI (A498 renal): 9.79 µM
- GI50 (COLO 205 colon): 2.04 µM
- TGI (COLO 205 colon): 3.86 µM
- GI50 (NCI-H23 lung): 3.12 µM
- TGI (NCI-H23 lung): 12.1 µM
- GI50 (SF-539 CNS): 1.8 µM
- TGI (SF-539 CNS): 3.52 µM
- GI50 (CAKI-1 renal): 2.28 µM
- TGI (CAKI-1 renal): 6.7 µM
- GI50 (HCT-15 colon): 1.27 µM
- TGI (HCT-15 colon): 2.86 µM
- GI50 (UO-31 renal): 1.26 µM
- TGI (UO-31 renal): 2.57 µM
- GI50 (MDA-MB-435): 2.55 µM
- TGI (MDA-MB-435): 6.56 µM
- GI50 (SK-MEL-28 melanoma): 2.15 µM
- TGI (SK-MEL-28 melanoma): 4.36 µM
- GI50 (NCI-H460 lung): 5.95 µM
- TGI (NCI-H460 lung): 20.6 µM
- GI50 (ACHN renal): 1.68 µM
- TGI (ACHN renal): 3.13 µM
- GI50 (786-0 renal): 1.92 µM
- TGI (786-0 renal): 4.05 µM
- GI50 (LOX IMVI melanoma): 1.72 µM
- TGI (LOX IMVI melanoma): 3.25 µM
- GI50 (K-562 leukemia): 0.198 µM
- TGI (K-562 leukemia): 3.03 µM
- GI50 (OVCAR-8 ovarian): 2.44 µM
- TGI (OVCAR-8 ovarian): 6.59 µM
- GI50 (HS 578T breast): 5.86 µM
- TGI (HS 578T breast): 27 µM
- GI50 (TK-10 renal): 1.91 µM
- TGI (TK-10 renal): 3.85 µM
- GI50 (M14 melanoma): 1.89 µM
- TGI (M14 melanoma): 4.21 µM
- GI50 (SW-620 colon): 1.73 µM
- TGI (SW-620 colon): 4.36 µM
- GI50 (BT-549 breast): 1.73 µM
- TGI (BT-549 breast): 3.77 µM
- GI50 (SNB-19 CNS): 6.43 µM
- TGI (SNB-19 CNS): 19.1 µM
- GI50 (MOLT-4 leukemia): 2.09 µM
- TGI (MOLT-4 leukemia): 5.71 µM
- GI50 (OVCAR-4 ovarian): 3.31 µM
- TGI (OVCAR-4 ovarian): 13 µM
- GI50 (T-47D breast): 1.71 µM
- TGI (T-47D breast): 4.09 µM
- GI50 (U251 CNS): 3.06 µM
- TGI (U251 CNS): 10.6 µM
- GI50 (SNB-75 CNS): 4.16 µM
- TGI (SNB-75 CNS): 15.2 µM
- GI50 (SF-295 CNS): 6.44 µM
- TGI (SF-295 CNS): 19.4 µM
- GI50 (HOP-92 NSCLC): 1.62 µM
- TGI (HOP-92 NSCLC): 3.63 µM
- GI50 (SK-MEL-2 melanoma): 3.19 µM
- TGI (SK-MEL-2 melanoma): 9.83 µM
- GI50 (MALME-3M melanoma): 1.94 µM
- TGI (MALME-3M melanoma): 3.67 µM
- GI50 (HCT-116 colon): 1.72 µM
- TGI (HCT-116 colon): 3.2 µM
- GI50 (HOP-62 NSCLC): 8.12 µM
- TGI (HOP-62 NSCLC): 21 µM
- GI50 (DU-145 prostate): 1.37 µM
- TGI (DU-145 prostate): 2.72 µM
- GI50 (MCF7 breast): 1.45 µM
- TGI (MCF7 breast): 3.44 µM
- GI50 (EKVX NSCLC): 3.69 µM
- TGI (EKVX NSCLC): 13.7 µM
- GI50 (RXF 393 renal): 1.68 µM
- TGI (RXF 393 renal): 3.25 µM
- GI50 (OVCAR-5 ovarian): 2.99 µM
- TGI (OVCAR-5 ovarian): 8.58 µM
- GI50 (OVCAR-3 ovarian): 1.33 µM
- TGI (OVCAR-3 ovarian): 2.74 µM
- GI50 (HT29 colon): 2.58 µM
- TGI (HT29 colon): 10.1 µM
- GI50 (RPMI-8226 leukemia): 1.25 µM
- TGI (RPMI-8226 leukemia): 4.02 µM

SMILES: O=C(NCCCCN(CCCNC(=O)C(F)(F)F)Cc1ccccc1)C(F)(F)F
- TGI (A549 NSCLC): > 100 µM
- TGI (IGROV1 ovarian): > 100 µM
- TGI (MDA-MB-231 breast): > 100 µM
- TGI (UACC-62 melanoma): > 100 µM
- TGI (KM12 colon): > 100 µM
- TGI (NCI-H522 lung): > 100 µM
- TGI (CCRF-CEM leukemia): > 100 µM
- TGI (SF-268 CNS): > 100 µM
- TGI (HL-60(TB) leukemia): > 100 µM
- TGI (PC-3 prostate): > 100 µM
- TGI (UACC-257 melanoma): > 100 µM
- TGI (SK-OV-3 ovarian): > 100 µM
- TGI (NCI-H226 lung): > 100 µM
- TGI (HCC-2998 colon): > 100 µM
- TGI (NCI/ADR-RES ovarian): > 100 µM
- TGI (SN12C renal): > 100 µM
- TGI (A498 renal): > 100 µM
- TGI (COLO 205 colon): > 100 µM
- TGI (SK-MEL-5 melanoma): > 100 µM
- TGI (NCI-H23 lung): > 100 µM
- TGI (SF-539 CNS): > 100 µM
- TGI (HCT-15 colon): > 100 µM
- TGI (UO-31 renal): > 100 µM
- TGI (MDA-MB-435): > 100 µM
- TGI (SK-MEL-28 melanoma): > 100 µM
- TGI (NCI-H460 lung): > 100 µM
- TGI (ACHN renal): > 100 µM
- TGI (786-0 renal): > 100 µM
- TGI (K-562 leukemia): > 100 µM
- TGI (OVCAR-8 ovarian): > 100 µM
- TGI (HS 578T breast): > 100 µM
- TGI (TK-10 renal): > 100 µM
- TGI (M14 melanoma): > 100 µM
- TGI (SW-620 colon): > 100 µM
- TGI (BT-549 breast): > 100 µM
- TGI (SNB-19 CNS): > 100 µM
- TGI (MOLT-4 leukemia): > 100 µM
- TGI (OVCAR-4 ovarian): > 100 µM
- TGI (T-47D breast): > 100 µM
- TGI (U251 CNS): > 100 µM
- TGI (SNB-75 CNS): > 100 µM
- TGI (SF-295 CNS): > 100 µM
- TGI (HOP-92 NSCLC): > 100 µM
- TGI (SK-MEL-2 melanoma): > 100 µM
- TGI (HCT-116 colon): > 100 µM
- TGI (HOP-62 NSCLC): > 100 µM
- TGI (DU-145 prostate): > 100 µM
- TGI (MCF7 breast): > 100 µM
- TGI (EKVX NSCLC): > 100 µM
- TGI (RXF 393 renal): > 100 µM
- TGI (OVCAR-5 ovarian): > 100 µM
- TGI (OVCAR-3 ovarian): > 100 µM
- TGI (HT29 colon): > 100 µM
- TGI (RPMI-8226 leukemia): > 100 µM
